# Experimental data from ChEMBL document CHEMBL5260842 (J Med Chem, 2019).
# Active and inactive are the calls of the source. The rule behind the calls is not given here.
# Key:
# [1] = system: von Hippel-Lindau disease tumor suppressor/Androgen receptor (Homo sapiens); assay: In vivo protac activity at VHL/AR in human VCaP cells xenografted SCID mouse assessed as reduction in AR protein level in tumor at 50 mg/kg, ip administered as single dose measured after 3 to 48 hrs Western blot analysis; conditions: time 3-48 hrs
# LNCaP [2] = assay: Downregulation of PSA mRNA expression in human LNCaP cells measured after 24 hrs by qRT-PCR analysis; assay type: functional, cell-based; conditions: dose 0.1-10000 nM
# [3] = target: T1, von Hippel-Lindau disease tumor suppressor/Androgen receptor (Homo sapiens, UniProt P10275+P40337); assay: Protac activity at VHL/AR in AR-positive human LNCaP cells assessed as induction of androgen receptor degradation at 100 nM preincubated with VHL ligand, (2S,4R)-4-hydroxy-1-((R)-3-methyl-2-(3-methylisoxazol-5-yl)butanoyl)-N-((S)-3-(methylamino)-1-(4-(4-methylthiazol-5-yl)phenyl)-3-oxopropyl)pyrrolidine-2-carboxamide for 2 hrs followed by compound addition and measured after 6 hrs by Western blot analysis; assay type: cell-based
# Target sequence in this assay (P10275 whole entry, looked up): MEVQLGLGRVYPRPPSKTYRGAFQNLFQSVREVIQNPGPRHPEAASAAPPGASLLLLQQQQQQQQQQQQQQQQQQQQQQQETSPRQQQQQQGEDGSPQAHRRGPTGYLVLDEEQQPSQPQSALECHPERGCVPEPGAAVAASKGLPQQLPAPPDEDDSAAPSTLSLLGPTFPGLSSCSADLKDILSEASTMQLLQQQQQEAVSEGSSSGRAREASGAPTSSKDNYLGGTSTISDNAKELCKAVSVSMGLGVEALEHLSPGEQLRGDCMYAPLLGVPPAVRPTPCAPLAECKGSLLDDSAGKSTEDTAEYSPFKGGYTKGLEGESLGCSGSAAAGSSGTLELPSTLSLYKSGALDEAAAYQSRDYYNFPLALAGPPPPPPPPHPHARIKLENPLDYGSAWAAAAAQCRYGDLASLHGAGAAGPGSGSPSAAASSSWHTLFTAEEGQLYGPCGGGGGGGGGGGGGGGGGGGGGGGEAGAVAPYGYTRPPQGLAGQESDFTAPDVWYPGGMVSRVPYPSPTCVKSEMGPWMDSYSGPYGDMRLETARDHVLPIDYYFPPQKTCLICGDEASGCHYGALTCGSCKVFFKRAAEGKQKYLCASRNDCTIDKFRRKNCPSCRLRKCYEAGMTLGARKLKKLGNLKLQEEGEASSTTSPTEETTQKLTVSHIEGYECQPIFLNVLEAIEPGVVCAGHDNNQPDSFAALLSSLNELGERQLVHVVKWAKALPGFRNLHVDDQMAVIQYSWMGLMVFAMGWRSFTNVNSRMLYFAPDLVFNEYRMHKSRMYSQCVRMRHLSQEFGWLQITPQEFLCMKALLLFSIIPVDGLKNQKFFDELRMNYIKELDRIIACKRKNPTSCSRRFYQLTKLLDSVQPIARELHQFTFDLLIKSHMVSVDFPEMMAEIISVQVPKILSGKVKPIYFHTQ
# Target sequence in this assay (P40337 whole entry, looked up): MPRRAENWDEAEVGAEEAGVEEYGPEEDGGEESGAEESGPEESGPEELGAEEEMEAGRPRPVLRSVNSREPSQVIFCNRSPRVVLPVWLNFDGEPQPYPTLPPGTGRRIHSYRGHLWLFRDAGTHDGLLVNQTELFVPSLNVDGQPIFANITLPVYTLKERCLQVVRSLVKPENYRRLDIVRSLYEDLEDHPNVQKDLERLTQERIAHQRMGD
# VCaP [4] = assay: Downregulation of FKBP5 mRNA expression in human VCaP cells measured after 24 hrs by charcoal stripped serum based qRT-PCR analysis; assay type: functional, cell-based; conditions: dose 1-1000 nM
# VCaP [5] = assay: Downregulation of PSA mRNA expression in human VCaP cells measured after 24 hrs by charcoal stripped serum based qRT-PCR analysis; assay type: functional, cell-based; conditions: dose 1-1000 nM
# VCaP [6] = assay: Downregulation of FKBP5 mRNA expression in human VCaP cells measured after 24 hrs by regular serum based qRT-PCR analysis; assay type: functional, cell-based; conditions: dose 1-1000 nM
# [7] = Downregulation of TMPRSS2 mRNA expression in human VCaP cells at 10 nM measured after 24 hrs by charcoal stripped serum based qRT-PCR analysis relative to control; assay type: functional
# [8] = target: T1, von Hippel-Lindau disease tumor suppressor/Androgen receptor; assay: Protac activity at VHL/AR in human VCaP cells assessed as induction of protein degradation measured after 24 hrs by Western blot analysis; assay type: cell-based
# Target sequence in this assay (P10275 whole entry): as the sequence (P10275 whole entry, looked up) above
# Target sequence in this assay (P40337 whole entry): as the sequence (P40337 whole entry, looked up) above
# VCaP [9] = assay: Potency index, ratio of enzalutamide IC50 to test compound IC50 for cytotoxicity against AR-positive human VCaP cells assessed as inhibition of cell growth incubated for 7 days in presence of AR agonist, R1881 in charcoal stripped medium by WST-8 assay; assay type: functional; conditions: time 7 day
# [10] = target: T1, von Hippel-Lindau disease tumor suppressor/Androgen receptor; assay: Protac activity at VHL/AR in AR-positive human VCaP cells assessed as induction of androgen receptor degradation at 100 nM preincubated with NEDD8 activating E1 enzyme inhibitor, MLN4924 for 2 hrs followed by compound addition and measured after 6 hrs by Western blot analysis; assay type: cell-based
# Target sequence in this assay (P10275 whole entry, looked up): as the sequence (P10275 whole entry, looked up) above
# Target sequence in this assay (P40337 whole entry, looked up): as the sequence (P40337 whole entry, looked up) above
# [11] = target: T1, von Hippel-Lindau disease tumor suppressor/Androgen receptor; assay: Protac activity at VHL/AR in human 22Rv1 cells assessed as induction of protein degradation measured after 24 hrs by Western blot analysis; assay type: cell-based
# Target sequence in this assay (P10275 whole entry): as the sequence (P10275 whole entry, looked up) above
# Target sequence in this assay (P40337 whole entry): as the sequence (P40337 whole entry, looked up) above
# [12] = target: T1, von Hippel-Lindau disease tumor suppressor/Androgen receptor; assay: Protac activity at VHL/AR in human VCaP cells assessed as induction of protein degradation at 10 nM measured after 24 hrs by Western blot analysis relative to control; assay type: cell-based
# Target sequence in this assay (P10275 whole entry, looked up): as the sequence (P10275 whole entry, looked up) above
# Target sequence in this assay (P40337 whole entry, looked up): as the sequence (P40337 whole entry, looked up) above
# [13] = target: T1, von Hippel-Lindau disease tumor suppressor/Androgen receptor; assay: In vivo protac activity at VHL/AR in human VCaP cells xenografted SCID mouse assessed as reduction in PSA protein level in tumor at 50 mg/kg, ip administered as single dose measured after 3 to 48 hrs Western blot analysis; assay type: functional, organism-based; conditions: time 3-48 hrs
# Target sequence in this assay (P10275 whole entry, looked up): as the sequence (P10275 whole entry, looked up) above
# Target sequence in this assay (P40337 whole entry, looked up): as the sequence (P40337 whole entry, looked up) above
# [14] = target: T1, von Hippel-Lindau disease tumor suppressor/Androgen receptor; assay: Protac activity at VHL/AR in AR-positive human VCaP cells assessed as induction of androgen receptor degradation at 100 nM preincubated with proteasome inhibitor, MG132 for 2 hrs followed by compound addition and measured after 6 hrs by Western blot analysis; assay type: cell-based
# Target sequence in this assay (P10275 whole entry, looked up): as the sequence (P10275 whole entry, looked up) above
# Target sequence in this assay (P40337 whole entry, looked up): as the sequence (P40337 whole entry, looked up) above
# CWR22R [15] = assay: Potency index, ratio of enzalutamide IC50 to test compound IC50 for cytotoxicity against AR-positive human 22Rv1 cells assessed as inhibition of cell growth incubated for 7 days in regular culture medium by WST-8 assay; assay type: functional; conditions: time 7 day
# CWR22R [16] = assay: Cytotoxicity against AR-positive human 22Rv1 cells assessed as inhibition of cell growth incubated for 7 days in regular culture medium by WST-8 assay; assay type: functional, cell-based; conditions: 22Rv1, 168 h
# VCaP [17] = assay: Cytotoxicity against AR-positive human VCaP cells assessed as inhibition of cell growth incubated for 7 days in presence of AR agonist, R1881 in charcoal stripped medium by WST-8 assay; assay type: functional, cell-based; conditions: 168 h
# [18] = target: T1, von Hippel-Lindau disease tumor suppressor/Androgen receptor; assay: Protac activity at VHL/AR in AR-positive human VCaP cells assessed as induction of androgen receptor degradation at 100 nM preincubated with N-((1r,3r)-3-(3-chloro-4-cyanophenoxy)-2,2,4,4-tetramethylcyclobutyl)-1-(2-hydroxyethyl)-1H-pyrazole-4-carboxamide for 2 hrs followed by compound addition and measured after 6 hrs by Western blot analysis; assay type: cell-based
# Target sequence in this assay (P10275 whole entry, looked up): as the sequence (P10275 whole entry, looked up) above
# Target sequence in this assay (P40337 whole entry, looked up): as the sequence (P40337 whole entry, looked up) above
# [19] = Downregulation of PSA mRNA expression in human VCaP cells at 10 nM measured after 24 hrs by charcoal stripped serum based qRT-PCR analysis relative to control; assay type: functional
# LNCaP [20] = assay: Downregulation of FKBP5 mRNA expression in human LNCaP cells measured after 24 hrs by qRT-PCR analysis; assay type: functional, cell-based; conditions: dose 0.1-10000 nM
# [21] = target: T1, von Hippel-Lindau disease tumor suppressor/Androgen receptor; assay: Protac activity at VHL/AR in human LNCaP cells assessed as induction of protein degradation measured after 24 hrs by Western blot analysis; assay type: cell-based
# Target sequence in this assay (P10275 whole entry): as the sequence (P10275 whole entry, looked up) above
# Target sequence in this assay (P40337 whole entry): as the sequence (P40337 whole entry, looked up) above
# LNCaP [22] = assay: Downregulation of TMPRSS2 mRNA expression in human LNCaP cells measured after 24 hrs by qRT-PCR analysis; assay type: functional, cell-based; conditions: dose 0.1-10000 nM
# VCaP [23] = assay: Downregulation of TMPRSS2 mRNA expression in human VCaP cells measured after 24 hrs by charcoal stripped serum based qRT-PCR analysis; assay type: functional, cell-based; conditions: dose 1-1000 nM
# VCaP [24] = assay: Downregulation of ERG gene expression in human VCaP cells measured after 24 hrs by charcoal stripped serum based qRT-PCR analysis; assay type: functional, cell-based; conditions: dose 1-1000 nM
# [25] = Downregulation of TMPRSS2 mRNA expression in human VCaP cells at 10 nM measured after 24 hrs by regular serum based qRT-PCR analysis relative to control; assay type: functional
# [26] = Downregulation of PSA mRNA expression in human LNCaP cells at 10 nM measured after 24 hrs by qRT-PCR analysis relative to control; assay type: functional
# [27] = target: T1, von Hippel-Lindau disease tumor suppressor/Androgen receptor; assay: Protac activity at VHL/AR in AR-positive human LNCaP cells assessed as induction of androgen receptor degradation at 100 nM preincubated with NEDD8 activating E1 enzyme inhibitor, MLN4924 for 2 hrs followed by compound addition and measured after 6 hrs by Western blot analysis; assay type: cell-based
# VCaP [28] = assay: Downregulation of TMPRSS2 mRNA expression in human VCaP cells measured after 24 hrs by regular serum based qRT-PCR analysis; assay type: functional, cell-based; conditions: dose 1-1000 nM
# [29] = target: T1, von Hippel-Lindau disease tumor suppressor/Androgen receptor; assay: Protac activity at VHL/AR in AR-positive human VCaP cells assessed as induction of androgen receptor degradation at 100 nM preincubated with VHL ligand, (2S,4R)-4-hydroxy-1-((R)-3-methyl-2-(3-methylisoxazol-5-yl)butanoyl)-N-((S)-3-(methylamino)-1-(4-(4-methylthiazol-5-yl)phenyl)-3-oxopropyl)pyrrolidine-2-carboxamide for 2 hrs followed by compound addition and measured after 6 hrs by Western blot analysis; assay type: cell-based
# [30] = target: T1, von Hippel-Lindau disease tumor suppressor/Androgen receptor; assay: Protac activity at VHL/AR in AR-positive human LNCaP cells assessed as induction of androgen receptor degradation at 100 nM preincubated with N-((1r,3r)-3-(3-chloro-4-cyanophenoxy)-2,2,4,4-tetramethylcyclobutyl)-1-(2-hydroxyethyl)-1H-pyrazole-4-carboxamide for 2 hrs followed by compound addition and measured after 6 hrs by Western blot analysis; assay type: cell-based
structure (smiles),measurement,setting,value
Cc1ncsc1-c1ccc([C@H](CC(=O)N2CCC(N3CCC(C#Cc4ccc(C(=O)N[C@H]5C(C)(C)[C@H](Oc6ccc(C#N)c(Cl)c6)C5(C)C)cc4)CC3)CC2)NC(=O)[C@@H]2C[C@@H](O)CN2C(=O)[C@@H](NC(=O)C2(F)CC2)C(C)(C)C)cc1,Activity,[1],Active
same,Activity,LNCaP [2],Dose-Dependent Effect
same,Activity,[3],inactive
same,Activity,VCaP [4],Dose-Dependent Effect
same,Activity,VCaP [5],Dose-Dependent Effect
same,Activity,VCaP [6],Dose-Dependent Effect
same,Activity,[7],>50%
same,EC50,[8],0.76 nM
same,Ratio IC50,VCaP [9],>100
same,Activity,[10],inactive
same,EC50,[11],10.4 nM
same,Activity,[12],> 95%
same,Activity,[13],Active
same,Activity,[14],inactive
same,Ratio IC50,CWR22R [15],>100
same,IC50,CWR22R [16],183 nM
same,IC50,VCaP [17],0.34 nM
same,Activity,[18],inactive
same,Activity,[19],>50%
same,Activity,LNCaP [20],Dose-Dependent Effect
same,EC50,[21],0.86 nM
same,Activity,LNCaP [22],Dose-Dependent Effect
same,Activity,VCaP [23],Dose-Dependent Effect
same,Activity,VCaP [24],Dose-Dependent Effect
same,Activity,[25],>50%
same,Activity,[26],>50%
same,Activity,[27],inactive
same,Activity,VCaP [28],Dose-Dependent Effect
same,Activity,[29],inactive
same,Activity,[30],inactive
